System: MYB mRNA
Test: Splicing RT-qPCR assay, MYB canonical (CJ) and alternative (AJ) junction mRNA
Assay type: cell-based
Conditions: Homo sapiens, A673 or K562 cells, 24 hours; for IC50: decrease in canonical junction mRNA; for AC50: increase in alternative junction mRNA
In short: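 A673 or K562 cells were treated 24 h at 37 °C with compounds in an 11-point 3-fold dilution series (top final 10 uM, DMSO ≤0.25%). Lysates were analysed by one-step RT-qPCR for canonical (CJ) and alternative-exon (AJ) junction isoforms, normalized to GAPDH, GUSB or PPIA.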

Row | Structure (SMILES) | IC50 [µM] | AC50 [µM]
1 | CN[C@@H]1CCN(c2ccc(C(=O)Nc3cc(F)c4nc(C)cn4c3)c3nnccc23)C1 [Compound 238, (R)—N-(8-fluoro-2-methylimidazo[1,2-a]pyridin-6-yl)-5-(3-(methylamino)pyrrolidin-1-yl)cinnoline-8-carboxamide] | < 0.1 | < 0.1
2 | Cc1cn2cc(NC(=O)c3ccc(N4CC[C@@H](N)C4)c4ccnnc34)cc(F)c2n1 [Compound 270] | 0.1 to 1 | < 0.1
3 | Cc1cn2cc(NC(=O)c3ccc([C@H]4CCNC4)c4nccnc34)cc(F)c2n1 [Compound 246] | 0.1 to 1 | 0.1 to 1
4 | COc1nc(NC(=O)c2ccc(N3C[C@@H](C)N[C@@H](C)C3)c3nccnc23)nc2cn(C)nc12 [Compound 287] | 1 to 10 | > 10
5 | Cc1cn2cc(NC(=O)c3ccc(N4C[C@@H](C)N[C@@H](C)C4)c4ncc(Cl)nc34)cc(F)c2n1 [Compound 281] | 1 to 10 | 1 to 10
6 | Cc1cn2c(C)c(NC(=O)c3ccc(N4C[C@@H](C)N[C@@H](C)C4)c4nccnc34)cc(F)c2n1 [Compound 285] | 0.1 to 1 | 1 to 10
7 | Cc1cn2cc(NC(=O)c3ccc(N4CCNCC4)c4ccnnc34)ncc2n1 [Compound 120] | 0.1 to 1 | 0.1 to 1
8 | Cc1cn2cc(NC(=O)c3ccc(N4C[C@@H](C)N[C@@H](C)C4)c4nccnc34)nc(Cl)c2n1 [Compound 279] | < 0.1 | 0.1 to 1
9 | Cc1cn2cc(NC(=O)c3ccc(N4CCN5CCOC[C@@H]5C4)c4nccnc34)cc(F)c2n1 [Compound 255, (S)—N-(8-fluoro-2-methylimidazo[1,2-a]pyridin-6-yl)-8-(hexahydropyrazino[2,1-c][1,4]oxazin-8(1H)-yl)quinoxaline-5-carboxamide] | 0.1 to 1 | 0.1 to 1
10 | Cc1cn2cc(NC(=O)c3ccc(N4CC[C@@H](N(C)C)C4)c4nccnc34)cc(F)c2n1 [Compound 242, 8-[(3R)-3-(dimethylamino)pyrrolidin-1-yl]-N-{8-fluoro-2-methylimidazo[1,2-a]pyridin-6-yl}quinoxaline-5-carboxamide] | 0.1 to 1 | 1 to 10
11 | COc1cc2c(N3C[C@@H](C)N[C@@H](C)C3)ccc(C(=O)Nc3cc(F)c4nc(C)cn4c3)c2nn1 [Compound 273, 5-[(3R,5S)-3,5-dimethylpiperazin-1-yl]-N-{8-fluoro-2-methylimidazo[1,2-a]pyridin-6-yl}-3-methoxycinnoline-8-carboxamide] | 0.1 to 1 | 0.1 to 1
12 | Cc1cn2cc(NC(=O)c3ccc(N4CC(C)NC(C)C4)c4nc(C)c(C)nc34)cc(F)c2n1 (stereo not drawn) [Compound 257] | 0.1 to 1 | 1 to 10
13 | Cc1cn2cc(NC(=O)c3ccc(N4CCC(NC5CC5)CC4)c4nccnc34)cc(F)c2n1 [Compound 258, 8-(4-(cyclopropylamino)piperidin-1-yl)-N-(8-fluoro-2-methylimidazo[1,2-a]pyridin-6-yl)quinoxaline-5-carboxamide] | 0.1 to 1 | 0.1 to 1
14 | COc1cnc2c(N3CC[C@@H](N(C)C)C3)ccc(C(=O)Nc3cc(F)c4nc(C)cn4c3)c2n1 [Compound 244, 8-[(3R)-3-(dimethylamino)pyrrolidin-1-yl]-N-{8-fluoro-2-methylimidazo[1,2-a]pyridin-6-yl}-3-methoxyquinoxaline-5-carboxamide] | < 0.1 | < 0.1
15 | Cc1cn2cc(NC(=O)c3ccc(N4C[C@@H](C)N[C@@H](C5CC5)C4)c4nccnc34)cc(F)c2n1 [Compound 266, 8-((3S,5R)-3-cyclopropyl-5-methylpiperazin-1-yl)-N-(8-fluoro-2-methylimidazo[1,2-a]pyridin-6-yl)quinoxaline-5-carboxamide] | < 0.1 | < 0.1
16 | Cc1cn2cc(NC(=O)c3ccc(N4CCN[C@@H](C(C)C)C4)c4nccnc34)cc(F)c2n1 [Compound 250, N-{8-fluoro-2-methylimidazo[1,2-a]pyridin-6-yl}-8-[(3S)-3-isopropylpiperazin-1-yl]quinoxaline-5-carboxamide] | 0.1 to 1 | 1 to 10
17 | COc1ccc2c(N3C[C@@H](C)N[C@@H](C)C3)ccc(C(=O)Nc3cc(F)c4nc(C)cn4c3)c2n1 [Compound 268, 5-[(3R,5S)-3,5-dimethylpiperazin-1-yl]-N-{8-fluoro-2-methylimidazo[1,2-a]pyridin-6-yl}-2-methoxyquinoline-8-carboxamide] | 0.1 to 1 | < 0.1
18 | Cn1cc2ccc(NC(=O)c3ccc(N4CCNCC4)c4ccnnc34)cc2n1 [Compound 115] | > 10 | > 10
19 | Cc1cn2cc(NC(=O)c3ccc(N4C[C@@H](C)N[C@@H](C)C4)c4ncc(O)nc34)cc(F)c2n1 [Compound 275] | > 10 | > 10
20 | Cc1cn2cc(NC(=O)c3ccc(N4C5CNCC54)c4nccnc34)cc(F)c2n1 (stereo not drawn) [Compound 262, 8-{3,6-diazabicyclo[3.1.0]hexan-6-yl}-N-{8-fluoro-2-methylimidazo[1,2-a]pyridin-6-yl}quinoxaline-5-carboxamide] | 0.1 to 1 | 0.1 to 1
21 | Cc1cn2cc(NC(=O)c3ccc(N4CCC(NC5CC5)CC4)c4ccnnc34)cc(F)c2n1 [Compound 259, 5-[4-(cyclopropylamino)piperidin-1-yl]-N-{8-fluoro-2-methylimidazo[1,2-a]pyridin-6-yl} cinnoline-8-carboxamide] | < 0.1 | < 0.1
22 | Cc1cn2cc(NC(=O)c3ccc(N4CCNCC4)c4ccnnc34)c(C)cc2n1 [Compound 119] | 1 to 10 | 1 to 10

Now from value to compound, other results behind:

Row | IC50 [µM] | Structure (SMILES) | AC50 [µM]
23 | 0.1 to 1 | Cc1cn2cc(NC(=O)c3ccc(N4CCC5(CCN5)C4)c4nccnc34)cc(F)c2n1 (stereo not drawn) [Compound 339] | 1 to 10
24 | 0.1 to 1 | Cc1cn2cc(NC(=O)c3ccc(N4CCN(CCO)C5(CC5)C4)c4nccnc34)cc(F)c2n1 [Compound 369] | 0.1 to 1
25 | 0.1 to 1 | Cc1cn2cc(NC(=O)c3ccc(N4C[C@@H](C)N[C@@H](C)C4)c4cncnc34)cc(F)c2n1 [Compound 302] | 0.1 to 1
26 | 0.1 to 1 | Cc1cn2cc(NC(=O)c3ccc(N4CCN(C)C5(CC5)C4)c4nccnc34)cc(F)c2n1 [Compound 364] | 0.1 to 1
27 | 0.1 to 1 | Cc1cn2cc(NC(=O)c3ccc(N4CCNC5(CCC5)C4)c4nccnc34)cc(F)c2n1 [Compound 363] | 0.1 to 1
28 | 0.1 to 1 | Cc1cn2cc(NC(=O)c3ccc(N4C[C@@H](C)N[C@@H](C)C4)c4nccnc34)cc(C#N)c2n1 [Compound 294] | 0.1 to 1
29 | > 10 | Cc1ccc2cc(NC(=O)c3ccc(N4C[C@@H](C)N[C@@H](C)C4)c4nccnc34)cc(F)c2n1 [Compound 353] | > 10
30 | < 0.1 | Cc1cn2cc(NC(=O)c3ccc(N4C[C@@H](C)N[C@@H](C)C4)c4nccnc34)cc(Cl)c2n1 [Compound 304] | < 0.1
31 | < 0.1 | Cc1cn2cc(NC(=O)c3ccc(N4C[C@H](C)N[C@@H](C)C4)c4nccnc34)cc(F)c2n1 [Compound 313] | < 0.1
32 | 0.1 to 1 | C[C@@H]1CN(c2ccc(C(=O)Nc3cc(F)c4nn(C)cc4c3)c3nccnc23)C[C@@H](C)N1 [Compound 335] | 0.1 to 1
33 | 0.1 to 1 | C[C@@H]1CN(c2ccc(C(=O)Nc3cc(F)c4nc(Cl)cn4c3)c3nccnc23)C[C@H](C)N1 [Compound 306] | 0.1 to 1
34 | 0.1 to 1 | Cc1cn2cc(NC(=O)c3ccc(N4CCNC5(CC5)C4)c4cccnc34)cc(F)c2n1 [Compound 341] | 0.1 to 1
35 | 0.1 to 1 | Cc1cn2cc(NC(=O)c3ccc(N4C[C@@H](C)N[C@@H](C)C4)c4nccnc34)nc2c(C)n1 [Compound 359] | 0.1 to 1
36 | > 10 | Cc1cn2cc(NC(=O)c3ccc(N4C[C@@H](C)N[C@@H](C)C4)c4ncccc34)cc(F)c2n1 [Compound 358] | > 10
37 | > 10 | COc1cn2cc(NC(=O)c3ccc(N4C[C@@H](C)N[C@@H](C)C4)c4nccnc34)cc(F)c2n1 [Compound 357] | 1 to 10
38 | 0.1 to 1 | CCN1CCN(c2ccc(C(=O)Nc3cc(F)c4nc(C)cn4c3)c3nccnc23)CC12CC2 [Compound 365] | 0.1 to 1
39 | 0.1 to 1 | Cc1cn2cc(NC(=O)c3ccc(N4CCNCC4)c4nncnc34)cc(F)c2n1 [Compound 345] | 0.1 to 1
40 | 0.1 to 1 | Cc1cn2cc(NC(=O)c3ccc(N4C[C@@H](C)N(O)[C@@H](C)C4)c4nccnc34)cc(F)c2n1 [Compound 355] | 0.1 to 1
41 | 0.1 to 1 | COc1nc(NC(=O)c2ccc(N3C[C@@H](C)N[C@@H](C)C3)c3nccnc23)cc2cn(C)nc12 [Compound 352] | 0.1 to 1
42 | 1 to 10 | COc1nc2ccc(NC(=O)c3ccc(N4C[C@@H](C)N[C@@H](C)C4)c4nccnc34)cc2o1 [Compound 292] | > 10
43 | 1 to 10 | C[C@@H]1CN(c2ccc(C(=O)Nc3ccc4nc(N(C)C)oc4c3)c3nccnc23)C[C@H](C)N1 [Compound 290] | > 10
44 | 0.1 to 1 | Cc1cn2cc(NC(=O)c3ccc(N4C[C@@H](C)N[C@@H](C)C4)c4cccnc34)cc(F)c2n1 [Compound 340] | 0.1 to 1
45 | < 0.1 | Cc1cn2cc(NC(=O)c3ccc(N4CCNC(C)(CO)C4)c4nccnc34)cc(F)c2n1 (stereo not drawn) [Compound 368] | < 0.1
46 | 1 to 10 | Cc1cn2cc(NC(=O)c3ccc(N4CCC(N)(CF)CC4)c4nccnc34)cc(F)c2n1 [Compound 356] | 1 to 10
47 | 1 to 10 | Cc1cn2cc(NC(=O)c3ccc(N4CCN[C@@H](CF)C4)c4nccnc34)cc(F)c2n1 [Compound 367] | 1 to 10
48 | 0.1 to 1 | Cc1cn2cc(NC(=O)c3ccc(N4CC[C@@H](N)C4)c4nccnc34)cc(F)c2n1 [Compound 315] | 1 to 10

Reference: patent publication US20240409536A1, “COMPOUNDS AND METHODS FOR MODULATING SPLICING” (REMIX THERAPEUTICS INC., priority 2021, published 2024)
